In patent US20090098050A1, “CALCIUM BINDING PEPTIDES” (THE REGENTS OF THE UNVERSITY OF CALIFORNIA, priority 2005, published 2009):
Where two headings read alike, the source gives them in different places. No end group written: not given here.

Tests used:
[1] = Tissue specific binding of DSS peptides and variants in human teeth (CLSM); details: 12.5 μM labeled peptide
Experimental: FIG. 8: Fluorescence micrographs showing tissue specificity in the binding of DSS peptides and variants. Adult human teeth were exposed to 12.5 μM 5(6)-carboxyfluorescein-labeled peptide without demineralization, washed extensively, and imaged by CLSM. For each section, multiple scans were collected and assembled in an automated mode to generate panels of images representing an area of 13×13 mm, sufficient in most cases to encompass the whole section. The peptides used for each section are labeled beneath each panel, and within each panel the tooth is oriented with the root toward the top of the image and the crown toward the bottom. Tissue layers are labeled as follows: RTD=Root Tip Dentin; CPD=Circumpulpal Dentin; MD=Mantle Dentin; P=Pulp Cavity Wall; DEJ=Dentin-Enamel Junction; E=Enamel; BE=Basal Enamel; CE=Cortical Enamel; CL=Carious Lesion; PB=Periodontal Bone.
In order to investigate the tissue specificity of DSS peptide binding to tooth tissue, sections of human teeth were exposed to DSS peptides and variants, then imaged by CLSM as described in Example 2. The peptides utilized for these experiments were 8DSS, 8ASS, 8DAA, 8NAA, 4DSS, 4ESS, 4NSS, 4DTT, 4ETT, 4NTT, and 6DSS. Sagittal sections of human teeth extracted during normal clinical practice were polished and then incubated for ten minutes in a solution of the appropriate 5(6) carboxyfluorescein-labeled peptide (12.5 μM) containing 10 mM NaCl and 50 mM HEPES, pH 7.0. Control samples were prepared without peptide. Samples were washed extensively after treatment and imaged by CLSM using blue laser illumination (λ=488 nm) and a FITC emission filter, with identical camera and microscope settings for each sample. For each section, multiple scans were collected and assembled in an automated mode to generate panels of images representing an area of 13×13 mm, sufficient in most cases to encompass the whole section. […] Significant binding was also seen to the edges of the pulp cavity.

[2] = Binding of labeled 6DSS to sagitally sectioned human teeth (CLSM)
Experimental: FIG. 1: Binding affinities of DSS and DSS variant peptides for hydroxyapatite and tooth surfaces. A-C. Fluorescein-labeled peptides at concentrations ranging from 0-100 μM were incubated with 0.3 mg of hydroxyapatite nanocrystals (specific surface area=100 m^2/g) for ten minutes, followed by removal of the hydroxyapatite by centrifugation. The amount of peptide in the mixture before and after hydroxyapatite removal was determined by Abs480. Isotherms were plotted and fit to the Langmuir equation to extract values for KA, a constant reflecting the affinity of the peptide for the hydroxyapatite surface. D. Sagitally sectioned human teeth were incubated with 12.5 μM 5(6) carboxyfluorescein-labeled 6DSS peptide for ten minutes, followed by rinsing. Peptide binding to tooth surfaces was visualized by Confocal Laser Scanning Microscopy (CLSM) using blue laser illumination (λA=488 nm) and a FITC emission filter. Left side, light colored region: dentin. Right side, dark colored region: enamel.
Control samples were prepared without peptide. Samples were rinsed after treatment and imaged by confocal laser scanning microscopy (CLSM) using blue laser illumination (excitation wavelength (λ)=488 nm) and a FITC emission filter.

[3] = Preferential binding to carious lesions in teeth (CLSM); design: species or system human; details: labeled peptide, settings optimized per sample
Experimental: FIG. 9: Fluorescence micrographs showing specific binding of DSS peptides and variants to carious lesions in teeth. Adult human teeth were exposed to 12.5 uM 5(6)-carboxyfluorescein-labeled peptide without demineralization, washed extensively, and imaged by CLSM. Microscope and camera settings were optimized separately for each sample. […] White traces on the right side of each panel identify the position of the tooth surface, while arrows indicate the position of the stained lesion.
Sections of human teeth containing obvious carious lesions, which consist of demineralized enamel, were polished and exposed to 5(6)-carboxyfluorescein-labeled DSS peptides and variants using the protocol described in Example 2. The sections were washed extensively and imaged by CLSM using blue laser illumination (λ=488 nm) and a FITC emission filter, with microscope and camera settings adjusted for each sample to optimize the signal detected from each peptide. The images were examined to identify the relative levels of peptide binding in healthy versus carious tissue. […] Given their ability to remineralize at sites of enamel degradation (Example 6), they can also be used to initiate remineralization at sites of enamel degradation such as caries or injury sites without causing inappropriate nucleation on healthy tissue surfaces.

[4] = tested on: mineralized mouse bone marrow nodules; assay: Binding to mineralized mouse bone marrow nodules (fluorescence microscopy); type: cell-based; details: 2.5 μM 5(6)-carboxyfluorescein-labeled peptide, three weeks
Experimental: FIG. 2: Binding of 6DSS peptide to mineralized mouse bone marrow nodules (MBMNs). Mouse bone marrow cultures were grown to confluence, then treated for three weeks with 2.5 μM scrambled control peptide or 2.5 μM 6DSS. Cultures were imaged by fluorescence microscopy using a FITC filter set. A. Brightfield image of mineralized MBMNs from a culture treated with 6DSS. B. Fluorescence image of the field shown in (A). […] C. Brightfield image of mineralized MBMNs from a culture treated with scrambled control peptide. D. Fluorescence image of the field shown in (C), illustrating both the lack of binding of the control peptide to the MBMN's and the lack of autofluorescence within the sample. Mouse bone marrow cultures were grown to confluence in DMEM+10% FBS, then treated continuously for three weeks with either 2.5 μM 5(6)-carboxyfluorescein-labeled 6DSS or 2.5 μM 5(6)-carboxyfluorescein-labeled peptide #3-1 (scrambled control peptide, SEQ. ID NO. 24) in aMEM+10% FBS with 50 μg/mL ascorbic acid 4 mM β-glycerophosphate. Cultures were imaged by fluorescence microscopy using a FITC excitation/emission filter set, and both brightfield and fluorescence images were obtained.

[5] = tested on: Streptococcus mutans strain UA159; type: cell-based
Excerpt: In order to determine the suitability of DSS peptides to serve as targeting moieties to deliver therapeutic compounds to mineralized surfaces, peptides were synthesized containing an N-terminal (DSS)4, (DSS)5, or (DSS)6 peptide, a triglycine (GGG) linker, and a 2c-4 antimicrobial peptide (SEQ ID NO:26) (J. He, unpublished). The sequences of these fusion proteins are set forth in SEQ ID NOs:27-29, respectively. The antimicrobial activity of these peptides against anaerobic planktonic bacteria was determined by a modification of a previously described assay (Qi 2005). Briefly, Streptococcus mutans strain UA159 cells were diluted to ˜1×10^5 cfu/mL in Todd-Hewitt (TH) broth medium and mixed with either suspended hydroxyapatite nanocrystals (Berkeley Advanced Biomaterials, Inc., 0.03% w/v) or, for control samples, an equivalent volume of deionized water. Aliquots were transferred into 96-well plates (Fisher). Serial dilutions of the peptides were then made and added to the bacteria. […] Nonetheless, some antimicrobial activity is retained by this peptide.

Substance: 6DSS: peptide containing six Asp-Ser-Ser (DSS) repeats, SEQ ID NO:14 (DSSDSSDSSDSSDSSDSS; calcium binding peptide containing six DSS repeats, 6DSS, (DSS)-6)
- Tissue binding pattern in healthy tooth section ([1]; nondemineralized teeth): bound primarily to the mantle dentin
- Level of binding (staining) to tooth surfaces ([1]; ten minutes, identical settings): greatest levels of staining
- Fluorescent staining of tooth surface ([2]; 12.5 μM 5(6) carboxyfluorescein-labeled peptide, ten minutes): Intense fluorescent staining
- Location of peptide binding in tooth section ([2]; 12.5 μM labeled peptide, dentin versus enamel): limited to the dentin
- Specificity of binding to carious lesions versus surrounding healthy enamel [3]: highly specific binding to carious lesions
- Strength of staining of carious lesions [3]: exceptionally strong staining of carious lesions
- Staining of mineralizing nodules [4]: Strong staining

Substance: DSSDSSDSSDSSGGGRWRWRWF [4DSS-2c4]
- MIC ([5]; planktonic S. mutans, with 0.03% (w/v) hydroxyapatite, approximately 24 hours): unaffected
- MIC ([5]; strain UA159, 24 h): 52.5 µM

Substance: FHFHLHF [PL-135, reference compound]
- MIC ([5]; strain UA159, 24 h): 21 µM

Substance: LKRFLKWFKRF [b-34, reference compound]
- MIC ([5]; strain UA159, 24 h): 5.6 µM

Substance: RWRWRWF [2c-4, reference compound]
- MIC ([5]; strain UA159, 24 h): 2 µM

Substance: peptide #3-1: scrambled control peptide, SEQ. ID NO. 24 (LIKHILHRL; scrambled control peptide #3-1) [reference compound]
- Staining of mineralizing nodules [4]: No staining
